Data from patent US5177223A, “Indoleacetic acid derivatives, process for their preparation, and medicines containing same as active ingredients” (Zeria Pharmaceutical Co., Ltd., priority 1988, dated 1993).
Several values for one entry are separate records, joined by “and”; a condition that tells them apart may be missing. Equal values may be shown once. Where a name gives a salt, the structure may show the parent alone. Read-outs that look alike come from different tables or passages of the source.

Legend:
gastric-acid secretion = experiment: Test of Inhibition of Gastric-Acid Secretion by Histamine Stimulation; assay type: in vivo, Male SD rats; conditions: rat
Description: Test of Inhibition of Gastric-Acid Secretion by Histamine Stimulation
A feeding tube (fr. 3.5) for injecting test medicines was inserted into the duodenum, and the pylorus was ligatured. A polyethylene tube (inner diameter: 7 mm) was used in the anterior stomach and gastric fistula was performed. After washing the inside of the stomach with heated physiological salt solution (37° C.) several times, the body was closed. A tube with a fin was inserted into the caudal vein and was fastened with a tape and it was connected to a infusion pump (Harvard). The rats were enclosed in a KN Ballman II cage (Natsume Seisakusho). Gastric juice flowed from the fistula was collected with a messcylinder every one hour. Starting from one hour after the operation, histamine was continuously injected at a rate of 1.4 ml/hour through the caudal vein. Then, test compounds suspended in 0.5% sodium caboxy methyl cellulose (Na-CMC) were administered one hour after the start of the histamine injection. The gastric juice thus extracted in a period from one hour after the administration of the chemical to four hours after that was titrated by using an automatic titration apparatus (Kyoto Electronic) with 0.1N NaOH to adjust pH 7, and the quantity of the gastric juice was measured to obtain the total acid output.

gastric mucosa = experiment: Test of Injury to Gastric Mucosa; assay type: in vivo, Male Wistar rats; design: key to Ulcer Index: ulcer index determined by the Munchow method; conditions: oral, rat; for Ulcer Index / Ulcer occurrence (%): 5 hours; for degree of injury to the gastric mucosa: as compared with indomethacin
Description: Test of Injury to Gastric Mucosa
Male Wistar rats each having a body weight of about 180 to 200 g were divided into groups consisting of 10 rats and were fasted for 24 hours. After body weight of each rat has been measured, a test compound was suspended in an aqueous solution of 5% tragacanth gum and then orally administered to each rat. The rats were fasted again, and after 5 hours had passed, they were killed by cervical dislocation. A 1% formalin solution was injected into the gastric cavity of each of the rats so that it was semifixed. The gaster of each rat was cut along the greater curvature of the stomach, and the ulcer index of each rat was measured under a stereoscopic microscope and determined by the Munchow method. The Mann-Whitney U-test was applied to the statistic data processing.

[1] = test system: carrageenin plantar edema; experiment: Test of Carrageenin Plantar Edema; assay type: in vivo, Male Wistar rats; conditions: for inhibition rate at the peak compared with that of indomethacin: 84.0 μmol/kg; for inhibition rate at the peak compared with that of indomethacin / ED50 value relative to that of indomethacin: compared with indomethacin; for ED50: read-out: Carrageenin edema ED50
Description: Test of Carrageenin Plantar Edema
After the body weight of each rat had been measured, the volume of the right hind-leg of the rat was measured by using an apparatus for measuring plantar volumes. The rats were then divided into groups so that the groups have the same body weight average and plantar volume average. A test compound was suspended in an aqueous solution of 5% tragacanth gum and then orally administered to each of the rats. 0.1 ml of a physiological saline of 1% carrageenin was hypodarmically injected into the sole of the right hind-leg of each rat. The volume was measured for each rat every 1 hour for 5 hours. An edema rate was determined by using a rate of increase in the volume measured after treatment to the volume measured before treatment.

ICR male mice = experiment: Acute Toxicity Test; assay type: in vivo; conditions: oral, single dose 25, 50 and 75 mg/kg each
Description: A test compound was suspended in an aqueous solution of 5% gum arabic and then orally administered to each of 4 to 5-week old ICR male mice (Charles River Co., Ltd.) each having a body weight of 22 to 30 g in each group consisting of 3 to 4 mice, once in each of doses 25, 50, 75, 200 and 500 mg/kg.

[2] = dose 25.2 μmol/kg (Example 2 19.2 mg/kg)
[3] = dose 84.0 μmol/kg (Example 2 64.0, Example 5 69.0, indomethacin 30.0 mg/kg)
[4] = dose 84.0 μmol/kg (Example 2 64.0, Example 5 69.0, indomethacin 30.0 mg/kg), ** p < 0.01
[5] = oral, rat, dose 8.4 μmol/kg (Example 2 6.4, Example 5 6.9, indomethacin 3.0 mg/kg)
[6] = oral, rat, dose 84.0 μmol/kg (Example 2 64.0, Example 5 69.0, indomethacin 30.0 mg/kg)
[7] = dose 28.0 μmol/kg (Example 5 23.0, indomethacin 10.0 mg/kg)
[8] = dose 28.0 μmol/kg (Example 5 23.0, indomethacin 10.0 mg/kg), ** p < 0.01
[9] = oral, rat, dose 28.0 μmol/kg (Example 5 23.0, indomethacin 10.0 mg/kg)

Structure (SMILES) | Ulcer occurrence (%) (gastric mucosa; [3]) | Ulcer Index (gastric mucosa; [4]) | degree of injury to the gastric mucosa (gastric mucosa) | inhibition rate at the peak compared with that of indomethacin ([1]; oral, rat) | Carrageenin edema inhibition (%) rate at peak [1, 5] [%] | Carrageenin edema inhibition (%) rate at peak [1, 6] [%] | ED50 value relative to that of indomethacin ([1]; oral, rat) | ED50 ([1]; oral, rat) | Ulcer occurrence (%) (gastric mucosa; [7]) | Ulcer Index (gastric mucosa; [8]) | Carrageenin edema inhibition (%) rate at peak [1, 9] [%] | also measured
CN/C(=N/CCSCc1nc[nH]c1C)NC#N [Cimetidine, reference compound] |  |  |  |  |  |  |  |  |  |  |  | Gastric-acid secretion inhibition rate (%) (gastric-acid secretion; dose 30 mg/kg): 32.3%
COc1ccc2c(c1)c(CC(=O)OCC(=O)NCCCOc1cccc(CN3CCCCC3)c1)c(C)n2C(=O)c1ccc(Cl)cc1 [Example 2, N-[3-[3-(piperidinomethyl)phenoxy]propyl]carbamoylmethyl 1-(4-chlorobenzoyl)-5-methoxy-2-methyl-3-indolylacetate maleate] | 14 | 5.9 ± 4.92 | extremely low degree of injury | slightly higher | 34.9 | 62.6 | substantially the same | 27.8 µmol/kg and 21.1 mg/kg |  |  |  | Ulcer Index (gastric mucosa; [2]): 1.3 ± 0.63; Ulcer occurrence (%) (gastric mucosa; [2]): 0%; Ulcer occurrence (%) (gastric mucosa; dose 251.9 μmol/kg (Example 2 192.0 mg/kg)): 40%; Ulcer Index (gastric mucosa; dose 251.9 μmol/kg (Example 2 192.0 mg/kg), * p < 0.05): 17.5 ± 15.84; Carrageenin edema inhibition (%) rate at peak ([1]; oral, rat, dose 25.2 μmol/kg (Example 2 19.2 mg/kg)): 50.4%
COc1ccc2c(c1)c(CC(=O)OCCSCC(=O)NCCCOc1cccc(CN3CCCCC3)c1)c(C)n2C(=O)c1ccc(Cl)cc1 [Example 5, 2-[N-[3-[3-(piperidinomethyl)phenoxy]propyl]carbamoylmethylthio]ethyl 1-(4-chlorobenzoyl)-5-methoxy-2-methyl-3-indolylacetate maleate] | 0 | 0.0 ± 0.00 | extremely low degree of injury | slightly higher | 19.1 | 68.4 | about 2 times | 47.8 µmol/kg and 39.3 mg/kg | 0 | 0.1 ± 0.01 | 41.2 | Gastric-acid secretion inhibition rate (%) (gastric-acid secretion; dose 22 mg/kg): 47.4%; Gastric-acid secretion inhibition rate (%) (gastric-acid secretion; dose 44 mg/kg): 74.1%; Ulcer Index (gastric mucosa; dose 280.0 μmol/kg (Example 5 230.0 mg/kg)): 0.0 ± 0.00; Carrageenin edema inhibition (%) rate at peak ([1]; oral, rat, dose 280.0 μmol/kg (Example 5 230.0 mg/kg)): 72.7%
COc1ccc2c(c1)c(CC(=O)O)c(C)n2C(=O)c1ccc(Cl)cc1 [Indomethacin, indomethacin, reference compound] | 80 | 62.1 ± 16.50 |  |  | 49.8 | 55.9 |  |  | 70 | 46.5 ± 15.00 | 59.4 | Ulcer occurrence (%) (gastric mucosa; dose 56.0 μmol/kg (indomethacin 20.0 mg/kg)): 70%; Ulcer Index (gastric mucosa; dose 56.0 μmol/kg (indomethacin 20.0 mg/kg), ** p < 0.01): 52.8 ± 17.47; death of mice (ICR male mice): all the mice in the groups, to which 25, 50 and 75 mg/kg of indomethacin were respectively administered, died; ED50 ([1]; Rattus norvegicus, po): 20.6 µmol/kg and 7.4 mg/kg; Carrageenin edema inhibition (%) rate at peak ([1]; oral, rat, dose 2.8 μmol/kg (indomethacin 1.0 mg/kg)): 24.6%
